Some results are limits rather than exact numbers.

The nature of data set [1]: Kinetic solubility. The format is physicochemical. The protocol:
The kinetic solubility (KSOL) determination is carried out in a 96-well plate filtration format where the sample (2 μL of sample stock solution 10mM DMSO) is combined to 98 μL of 20 mM buffer phosphate pH 7.4. The filtration plate is then incubated and agitated at 250 rpm for 120 minutes. After stirring, the plate is centrifuged at 2500 rpm for 3 minutes, allowing all solvent to be collected in the lower microplate. Next to avoid pre-cipitation, 50 μL of the filtered solution is diluted with 50 μL of 2% DMSO in pH 7.4 buffer solution to yield a 100 μM sample solution ready for H(U)PLC analytics.
For the standard, each compound is prepared by combining 2 μL of the sample stock solution 10mM DMSO to 198 μL Acetonitrile/Methanol/Eluant A ([…]).
For the evaluation, wavelength with maximum sensitivity is to be selected. The kinetic solubility is determined according to following formulas, whereas S is the targeted value […]
L = area௦௔௠௣௟௘ × concentration௦௧௔௡ௗ௔௥ௗ × dilution factor௦௔௠௣௟௘area௦௧௔௡ௗ௔௥ௗ × dilution factor௦௧௔௡ௗ௔௥ௗ with: L= Concentration of solved compound in buffer [μg/ml] and S= Molar concentra-tion of solved compound in buffer [mol/L]
Chromatographic conditions: Column Waters XBridge Column C8 3.5μm (Waters Cat No 186003053); Column temperature 37°C; Autosampler Room temperature (approx.
25°C); Injection volume 10 μL (HPLC) / 3μL (UPLC); Wavelength 220 nm, 254 nm, 290 nm. Eluant A: 1 mL Formic Acid + 999 mL Ultrapure Water; Eluant B: 1 mL Formic Acid […]
Table S5. Gradient for UHPLC analysis
Time Eluent A (%) Eluent B (%) Flow (ml/min)
Reagents and Materials: Phosphate Buffer 20mM pH 7.4: EMS, Art No. 11601-40; DMSO Merck Art. No. 102950; Acetonitrile Merck, Art. No. 100030, Methanol Merck Art. No.
106007; Formic Acid Merck Art.No.100264; Acetonitrile Merck Art. No.10030; Filtration Plate Millipore MultiScreen HTS HV 0.45uM; 96 Well Millipore Art. No. MSHVN4510; Column Waters XBridge Column C8 3.5μm (Waters Cat. No. 186003053); HPLC vials VWR Cat. No. 5480028; Micro-Inserts VWR Cat. No. 548-0006; Screw caps VWR Cat. No. […]

Data set [2] concerns female CD-1 mouse. The data set can be described thus: Pharmacokinetic studies in mice (IV clearance). To be noted: for in vivo obs. CL,b: blood clearance; for in vivo obs. CLint,b: blood intrinsic clearance; for in vivo obs. CLint,b,u: unbound blood intrinsic clearance. The format is in vivo. The protocol: Pharmacokinetic studies were carried out after approval by the internal animal welfare board and in compliance with the local and international animal welfare regulations similarly to a method described previously. Generally, three or twelve CD-1 mice per study were dosed intravenously (0.2–1 mg/kg) using solution vehicles, predominantly 40% PEG 200 in 1% DMSO. For the majority of the studies, blood samples were taken retro-orbitally under inhalation of anesthesia (0.1, 0.5, 1, 2, 4, 6, and 24 h). For the remaining studies, blood sampling was performed both retro-orbitally (0.1, 0.5, 1, 2, and 24 h) and from the saphenous vein (4 and 6 h) (N = 51), from the dorsal metatarsal vein (N = 34), or submandibularly (N = 12). Plasma was obtained by centrifugation (10,000× g; 4 °C; 5 min) and stored at −20 °C until UHPLC-MS/MS analysis. By the addition of an ACN solution containing internal standard, the proteins were precipitated and dissevered by centrifugation. The concentration of the respective molecules studied was determined by a standard UHPLC-MS/MS method (generic method similar to the method described for the determination of CLint using experimentally determined compound MS tuning parameters). Plasma concentrations were determined for each time point sampled. Clearance was estimated from the AUC by non-compartmental analysis, which was performed using WinNonlin® (Princeton, NJ, USA). The geometric mean was used when more than one clearance value from different studies was available.
CLp/Rb observed CLint,b=QH∗obs. CL,b/QH−obs. CL,b
All unbound clearance terms were calculated by dividing the respective clearance by fu,p. predicted/observed CL,b,u=pred./obs. CL,b/fu,p

Turning to `O=C(O)c1cc(-c2ccc(F)cc2F)ccc1O` [MSC001], in data set [1], the “Kinetic solubility PBS pH 7.4” value is recorded as greater than 200 µM. In addition, in data set [2], the “in vivo obs. CL,b” value was 2.83 mL/min/kg, the “in vivo obs. CLint,b” value worked out at 2.91 mL/min/kg and the “in vivo obs. CLint,b,u” value is recorded as 170.57 mL/min/kg.

With `CNC(=O)c1cc(Oc2ccc3nc(N[C@@H]4CCCC[C@H]4O)sc3c2)ccn1` [MSC003], the “Kinetic solubility PBS pH 7.4” value in data set [1] is 156.7 µM. Also, in data set [2], the “in vivo obs. CL,b” value is on record as 6.38 mL/min/kg, the “in vivo obs. CLint,b” value turned out to be 6.81 mL/min/kg and the “in vivo obs. CLint,b,u” value came to 89.15 mL/min/kg.

As for `COc1cccc(OCCCN)c1-c1cc(Nc2cnc(C#N)cn2)n[nH]1` [MSC020], in data set [1], the “Kinetic solubility PBS pH 7.4” value was determined as 165.4 µM. For the same molecule, in data set [2], the “in vivo obs. CL,b” value is given as 77.00 mL/min/kg, the “in vivo obs. CLint,b” value was 317.36 mL/min/kg and the “in vivo obs. CLint,b,u” value amounted to 1652.94 mL/min/kg.

Consider `N#Cc1c[nH]c2c(C(=O)N3CCN(CCc4ccc(F)cc4)CC3)cccc12` [MSC213], for which the “Kinetic solubility PBS pH 7.4” value in data set [1] turned out to be 105.1 µM. For the same molecule, in data set [2], the “in vivo obs. CL,b” value is listed as 63.61 mL/min/kg, the “in vivo obs. CLint,b” value was 169.91 mL/min/kg and the “in vivo obs. CLint,b,u” value worked out at 3658.76 mL/min/kg.

For the origin of these results see paper PMC12029992, “Beyond-Rule-of-Five Compounds Are Not Different: In Vitro–In Vivo Extrapolation of Female CD-1 Mouse Clearance Based on Merck Healthcare KGaA Compound Set” (Pharmaceuticals, 2025).
